From patent US8835476B2, “Synthesis of novel antimicrobials” (priority 2005, dated 2014)
≈ marks a conversion by molar mass, not a printed value. Where two headings read alike, the source gives them in different places.

Tests used:
Format in all cases: cell-based
E. faecalis ATCC 29212 = assay: Broth microdilution MIC, ATCC strains; settings: for MIC: Enterococcus faecalis, read-out: MIC (growth inhibition, microdilution method)
Procedure, shortened: (§1)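 Clinical organisms, randomly drawn NAUTICA urinary isolates, and ATCC reference strains tested by NCCLS M7-A6 broth microdilution at 5×10^5 CFU/ml. Incubation 16 to 20 hours, 35° C, ambient air; MIC defined as lowest concentration without visible growth.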

K. oxytoca ATCC 49131 = assay: Broth microdilution MIC, ATCC strains; settings: Klebsiella oxytoca
Procedure, shortened: as §1

MRSA ATCC 33591 = assay: Broth microdilution MIC, ATCC strains; settings: Staphylococcus aureus, read-out: MIC (growth inhibition, microdilution method)
Procedure, shortened: as §1

B. cepacia ATCC 25416 = assay: Broth microdilution MIC, ATCC strains; settings: Burkholderia cepacia
Procedure, shortened: as §1

[1] = tested on: S. liquefaciens ATCC 27592; assay: Broth microdilution MIC, ATCC strains; settings: read-out: MIC (growth inhibition, microdilution method)
Procedure, shortened: as §1

Pr. stuartii ATCC 33672 = assay: Broth microdilution MIC, ATCC strains; settings: Providencia stuartii
Procedure, shortened: as §1

E. faecium ATCC 35667 = assay: Broth microdilution MIC, ATCC strains; settings: Enterococcus faecium, ATCC35667, read-out: MIC (growth inhibition, microdilution method)
Procedure, shortened: as §1

E. coli ATCC 25922 = assay: Broth microdilution MIC, ATCC strains; settings: for MIC: Escherichia coli; for MIC (growth inhibition, microdilution method): E. coli ATCC 25922
Procedure, shortened: as §1

S. marcescens ATCC 8100 = assay: Broth microdilution MIC, ATCC strains; settings: Serratia marcescens
Procedure, shortened: as §1

[2] = tested on: Ps. aeruginosa ATCC 27853; assay: Broth microdilution MIC, ATCC strains; settings: for MIC: Pseudomonas aeruginosa
Procedure, shortened: as §1

P. vulgaris ATCC 49132 = assay: Broth microdilution MIC, ATCC strains; settings: Proteus vulgaris
Procedure, shortened: as §1

[3] = tested on: Ps. aeruginosa clinical isolates; assay: Broth microdilution MIC, clinical isolate strains (NAUTICA); settings: unit assumed
Procedure, shortened: as §1

[4] = ATCC29212, E. faecalis ATCC 29212
[5] = ATCC29212, E. faecalis, ATCC number not given
[6] = ATCC49131, read-out: MIC (growth inhibition, microdilution method)
[7] = ATCC25416, B. cepacia ATCC 25416, read-out: MIC (growth inhibition, microdilution method)
[8] = ATCC33672, Pr. stuartii ATCC 33672, read-out: MIC (growth inhibition, microdilution method)
[9] = ATCC25922, E. coli ATCC 25922, read-out: MIC (growth inhibition, microdilution method)
[10] = ATCC25922, read-out: MIC (growth inhibition, microdilution method)
[11] = ATCC8100, read-out: MIC (growth inhibition, microdilution method)
[12] = ATCC27853, read-out: MIC (growth inhibition, microdilution method), Ps. aeruginosa ATCC 27853
[13] = ATCC27853, Ps. aeruginosa ATCC 27853, read-out: MIC (growth inhibition, microdilution method)
[14] = ATCC49132, read-out: MIC (growth inhibition, microdilution method)
[15] = ATCC33672, read-out: MIC (growth inhibition, microdilution method)
[16] = ATCC49131, K. oxytoca ATCC 49131, read-out: MIC (growth inhibition, microdilution method)
[17] = ATCC8100, S. marcescens ATCC 8100, read-out: MIC (growth inhibition, microdilution method)
[18] = ATCC49132, P. vulgaris ATCC 49132, read-out: MIC (growth inhibition, microdilution method)

Row | SMILES | MIC (E. faecalis ATCC 29212; [4]) [µg/mL] | MIC (E. faecalis ATCC 29212; [5]) [µg/mL] | MIC (K. oxytoca ATCC 49131; [6]) [µg/mL] | MIC (B. cepacia ATCC 25416; [7]) [µg/mL] | MIC [1] [µg/mL] | MIC (Pr. stuartii ATCC 33672; [8]) [µg/mL] | MIC (E. faecium ATCC 35667) [µg/mL] | MIC (E. coli ATCC 25922; [9]) [µg/mL] | MIC (E. coli ATCC 25922; [10]) [µg/mL] | MIC (S. marcescens ATCC 8100; [11]) [µg/mL] | MIC [2, 12] [µg/mL] | MIC [2, 13] [µg/mL] | MIC (P. vulgaris ATCC 49132; [14]) [µg/mL] | MIC (MRSA ATCC 33591; MRSA ATCC 33591) [µg/mL] | MIC (K. oxytoca ATCC 49131; [16]) [µg/mL] | MIC ([1]; S. liquefaciens ATCC 27592) [µg/mL] | MIC (S. marcescens ATCC 8100; [17]) [µg/mL] | MIC (P. vulgaris ATCC 49132; [18]) [µg/mL] | also measured
1 | O=C(O)c1cc(-c2nnn[nH]2)c(C(=O)O)s1 [DNM-111, 3-(1H-tetrazol-5-yl)thiophene-2,5-dicarboxylic acid] | 8 (≈ 33.3 µM) | 8 (≈ 33.3 µM) | 128 (≈ 533 µM) | 64 (≈ 266 µM) | 128 (≈ 533 µM) | 256 (≈ 1070 µM) | 8 (≈ 33.3 µM) | 64 (≈ 266 µM) | 128 (≈ 533 µM) | 128 (≈ 533 µM) | 128 (≈ 533 µM) | 64 (≈ 266 µM) | 128 (≈ 533 µM) |  |  |  |  |  | MIC (MRSA ATCC 33591): 128 µg/mL (≈ 533 µM); MIC, PS. AER ([3]; clinical isolates, one table line per isolate): 128 µg/mL (≈ 533 µM)
2 | Cn1nnc(-c2cc(C(=O)O)sc2C(=O)O)n1 [DNM-112, 3-(2-Methyl-2H-tetrazol-5-yl)-thiophene-2,5-dicarboxylic acid] | 8 (≈ 31.5 µM) | 8 (≈ 31.5 µM) | > 256 |  | > 256 |  | 8 (≈ 31.5 µM) |  | > 256 | > 256 | > 256 |  | > 256 | 16 (≈ 62.9 µM) |  |  |  |  | MIC (B. cepacia ATCC 25416; ATCC25416, read-out: MIC (growth inhibition, microdilution method)): > 256 µg/mL; MIC (Pr. stuartii ATCC 33672; [15]): > 256 µg/mL
3 | COC(=O)c1cc(-c2nnn(C)n2)c(C(=O)OC)s1 [DNM-114, 3-(2-methyl-2H-tetrazol-5-yl)-thiophene-2,5-dicarboxylic acid dimethyl ester] | 8 (≈ 28.3 µM) | 8 (≈ 28.3 µM) | 128 (≈ 453 µM) | 64 (≈ 227 µM) | 128 (≈ 453 µM) |  | 8 (≈ 28.3 µM) |  | 128 (≈ 453 µM) | 128 (≈ 453 µM) | 128 (≈ 453 µM) | 64 (≈ 227 µM) | 128 (≈ 453 µM) | 256 (≈ 907 µM) |  |  |  |  | MIC (Pr. stuartii ATCC 33672; [15]): 128 µg/mL (≈ 453 µM)
4 | O=C(O)c1cc(-c2nn[nH]n2)cs1 [DNM-116, 4-(2H-Tetrazol-5-yl)-thiophene-2-carboxylic acid] | 8 (≈ 40.8 µM) | 8 (≈ 40.8 µM) |  | 16 (≈ 81.6 µM) |  | 32 (≈ 163 µM) | 8 (≈ 40.8 µM) | 16 (≈ 81.6 µM) |  |  |  | 16 (≈ 81.6 µM) |  | > 32 | 16 (≈ 81.6 µM) | 16 (≈ 81.6 µM) | 16 (≈ 81.6 µM) | 32 (≈ 163 µM) | MIC (growth inhibition, microdilution method) (E. coli ATCC 25922): 8 µg/mL (≈ 40.8 µM)
5 | O=C(O)c1cc(-c2nnn[nH]2)c(-c2ccc(F)cc2)s1 [DNM-121, 5-(4-Fluoro-phenyl)-4-(1H-tetrazol-5-yl)-thiophene-2-carboxylic acid] | 8 (≈ 27.6 µM) | 8 (≈ 27.6 µM) |  | 64 (≈ 220 µM) |  | 64 (≈ 220 µM) | 8 (≈ 27.6 µM) | 64 (≈ 220 µM) |  |  |  | 64 (≈ 220 µM) |  | 64 (≈ 220 µM) | 64 (≈ 220 µM) | 64 (≈ 220 µM) | 64 (≈ 220 µM) | 64 (≈ 220 µM) | 
6 | Cn1nnc(-c2cc(C(=O)O)sc2-c2ccc(F)cc2)n1 [DNM-123, 5-(4-fluorophenyl)-4-(2-methyl-2H-tetrazol-5-yl)thiophene-2-carboxylic acid] | 8 (≈ 26.3 µM) | 8 (≈ 26.3 µM) |  | ≤ 0.5 |  | > 8 | 8 (≈ 26.3 µM) | 8 (≈ 26.3 µM) |  |  |  | 8 (≈ 26.3 µM) |  | > 8 | > 8 | 8 (≈ 26.3 µM) | 8 (≈ 26.3 µM) | > 8 | MIC (growth inhibition, microdilution method) (E. faecalis ATCC 29212; E. faecalis ATCC 29212): 8 µg/mL (≈ 26.3 µM); MIC (growth inhibition, microdilution method) (E. faecalis ATCC 29212; E. faecalis, ATCC number not given): 8 µg/mL (≈ 26.3 µM); MIC (growth inhibition, microdilution method) (E. coli ATCC 25922): 8 µg/mL (≈ 26.3 µM); MIC (growth inhibition, microdilution method) ([2]; Ps. aeruginosa ATCC 27853): 8 µg/mL (≈ 26.3 µM)
7 | CCOC(=O)c1cc(-c2nnn[nH]2)c(-c2ccc(F)cc2)s1 [DNM-124, 5-(4-Fluoro-phenyl)-4-(1H-tetrazol-5-yl)-thiophene-2-carboxylic acid ethyl ester] | > 64 | > 64 |  | 64 (≈ 201 µM) |  | > 64 | > 64 | > 64 |  |  |  | > 64 |  | > 64 | > 64 | > 64 | > 64 | > 64 | 
8 | CCOC(=O)c1cc(-c2nnn(C)n2)c(-c2ccc(F)cc2)s1 [DNM-125, ethyl 5-(4-fluorophenyl)-4-(2-methyl-2H-tetrazol-5-yl)thiophene-2-carboxylate] | > 16 | > 16 |  | > 16 |  | > 16 | > 16 | > 16 |  |  |  | > 16 |  | > 16 | > 16 | > 16 | > 16 | > 16 | MIC, PS. AER ([3]; Table 4B, each table row is one clinical isolate): > 16 µg/mL
